Melting point data for three compounds are collected here from patent publication US6958343B2, “Thiazolopyrimidines and their use as modulators of chemokine receptor activity” (AstraZeneca, AB, priority 2000, dated 2005).

The compound `C[C@H](CO)Nc1nc(SCc2ccno2)nc2nc(N)sc12` [Example 9, (2R)-2-[[2-Amino-5-[(5-isoxazolylmethyl)thio]thiazolo[4,5-d]pyrimidin-7-yl]amino]-1-propanol] yielded a melting point of 183 to 185 °C.
The compound `Cc1nc(CSc2nc(NC(CO)CO)c3sc(N)nc3n2)cs1` [Example 10, 2-[[2-Amino-5-[[(2-methyl-4-thiazolyl)methyl]thio]thiazolo[4,5-d]pyrimidin-7-yl]amino]-1,3-propanediol] registered a melting point of 158 to 160 °C.
As for `Cc1nc(CSc2nc(NC(C)(C)CO)c3sc(N)nc3n2)cs1` [Example 11, 2-[[2-Amino-5-[[(2-methyl-4-thiazolyl)methyl]thio]thiazolo[4,5-d]pyrimidin-7-yl]amino]-2-methyl-1-propanol], the melting point was 250 to 252 °C.

Usually melting point stands for the temperature of the solid-liquid transition.
